US20040253189A1, “Breath Freshening and Oral Cleansing Product Using Geraniol” (priority 2002, published 2004)
Values after ≈ are worked out from the molar mass of the structure shown.

Key:
Type in all cases: cell-based
Fusobacterium nucleatum [1] = assay: MIC (minimum inhibitory concentration) study, 96 well microtiter plates; details: F. nucleatum, 48 hours at 37° C., turbidity at 660 nm
Experimental: (§1) In vitro tests were conducted with a gram positive supragingival plaque bacterium, Streptococcus mutans. In addition, two subgingival plaque bacteria associated with oral malodor were tested, Porphyromonas gingivalis and Fusobacterium nucleatum. The MIC (Minimum Inhibitory Concentrations) study protocol is as follows. Chlorhexidine was used as a positive control and sterile water was used as a negative control. Geraniol was suspended in 10% methanol with 3.8% Tween 80. […] 96 well microtiter plates were used for this study. Each well contained 5×10^5 colony forming units/ml of bacteria, serially diluted agents and bacterial growth medium. All bacterial cultures were incubated at 37° C. and stationary. Bacterial growth was estimated spectrophotometrically at 660 nm, after 48 hours. The MIC for each test bacteria was defined as the minimum concentration of test compound limiting turbidity to <absorbance at 660 nm.

Porphyromonas gingivalis [2] = assay: as above; details: P. gingivalis, 48 hours at 37° C., turbidity at 660 nm
Experimental: as §1

Fusobacterium nucleatum [3] = assay: MBC (minimum bactericidal concentration) determination, plating on blood agar; details: F. nucleatum, lowest concentration that killed at least 99.9% of initial inoculum
Experimental: as §1, with “[…]. The MBC (Minimum bactericidal concentrations) were determined using the 96 well microtiter plate serial dilutions as described above for MIC studies. Serial dilution of cultures in wells showing no visible growth were performed and 10 microliters of culture were plated in triplicate on blood agar plates. Viable colonies were scored after incubation of the plates for 48 hours at 37° C. For each test bacterium, the number of CFU/ml were determined in the initial inoculum. The MBC was defined as the lowest concentration of a test compound that killed at least 99.9% of the cells present in the initial inoculum.” for “nm.”

Porphyromonas gingivalis [4] = assay: as above; details: P. gingivalis, lowest concentration that killed at least 99.9% of initial inoculum
Experimental: as §1, with “[…]. The MBC (Minimum bactericidal concentrations) were determined using the 96 well microtiter plate serial dilutions as described above for MIC studies. Serial dilution of cultures in wells showing no visible growth were performed and 10 microliters of culture were plated in triplicate on blood agar plates. Viable colonies were scored after incubation of the plates for 48 hours at 37° C. For each test bacterium, the number of CFU/ml were determined in the initial inoculum. The MBC was defined as the lowest concentration of a test compound that killed at least 99.9% of the cells present in the initial inoculum.” for “nm.”

Streptococcus mutans [5] = assay: MIC (minimum inhibitory concentration) study, 96 well microtiter plates; details: S. mutans, 48 hours at 37° C., turbidity at 660 nm
Experimental: as §1

Streptococcus mutans [6] = assay: MBC (minimum bactericidal concentration) determination, plating on blood agar; details: S. mutans, lowest concentration that killed at least 99.9% of initial inoculum
Experimental: as §1, with “[…]. The MBC (Minimum bactericidal concentrations) were determined using the 96 well microtiter plate serial dilutions as described above for MIC studies. Serial dilution of cultures in wells showing no visible growth were performed and 10 microliters of culture were plated in triplicate on blood agar plates. Viable colonies were scored after incubation of the plates for 48 hours at 37° C. For each test bacterium, the number of CFU/ml were determined in the initial inoculum. The MBC was defined as the lowest concentration of a test compound that killed at least 99.9% of the cells present in the initial inoculum.” for “nm.”

MIC (Fusobacterium nucleatum [1]) [µg/mL]	MIC (Porphyromonas gingivalis [2]) [µg/mL]	MIC (Streptococcus mutans [5]) [µg/mL]	Compound	MBC (Fusobacterium nucleatum [3]) [µg/mL]	MBC (Porphyromonas gingivalis [4]) [µg/mL]	MBC (Streptococcus mutans [6]) [µg/mL]
1.25 (≈ 2.47 µM)	1.25 (≈ 2.47 µM)		[H]/N=C(\N/C(=N/[H])NCCCCCCNC(=N)NC(=N)Nc1ccc(Cl)cc1)Nc1ccc(Cl)cc1 [Cholorhexidine, Chlorhexidine, reference compound]	1.25 (≈ 2.47 µM)	1.25 (≈ 2.47 µM)	
125 (≈ 810 µM)	125 (≈ 810 µM)	500 (≈ 3240 µM)	CC(C)=CCC/C(C)=C/CO [geraniol]	125 (≈ 810 µM)	125 (≈ 810 µM)	250 (≈ 1620 µM)
